# ChEMBL document CHEMBL4251606, “Design and characterization of α-lipoic acyl shikonin ester twin drugs as tubulin and PDK1 dual inhibitors” (Eur J Med Chem, 2018)
# Columns and labels:
# HeLa [1] = test: Induction of apoptosis in human HeLa cells assessed as early apoptotic cells at 1 uM after 24 hrs by Annexin V-APC/propidium iodide staining-based FACScan flow cytometric analysis (reference value: 6.46%); type: functional
# HeLa [2] = test: Induction of mitochondrial membrane potential loss in human HeLa cells assessed as cells with low membrane potential at 2 uM after 12 hrs by JC-1 staining-based flow cytometric analysis (reference value: 9.31%); type: functional
# HeLa [3] = test: Induction of apoptosis in human HeLa cells assessed as late apoptotic cells by measuring FL3-H+ cells at 1.4 uM after 24 hrs by propidium iodide staining-based FACScan flow cytometric analysis (reference value: 2.14%); type: functional
# HeLa [4] = test: Induction of apoptosis in human HeLa cells assessed as viable cells at 1 uM after 24 hrs by Annexin V-APC/propidium iodide staining-based FACScan flow cytometric analysis (reference value: 85.1%); type: functional; settings: read-out: Activity
# HepG2 = test: Antiproliferative activity against human HepG2 cells after 24 hrs by MTT assay; type: functional, cell-based; settings: HepG2, 24 h
compound,measurement,setting,value
CC(C)=CC[C@@H](OC(=O)CCCC[C@@H]1CCSC(c2ccccc2)S1)C1=CC(=O)c2c(O)ccc(O)c2C1=O (stereo not given in full),Activity,HeLa [1],15.8%
same,Activity,HeLa [2],53%
same,Activity,HeLa [3],30.1%
same,viability at 1 µM,HeLa [4],37%
same,IC50,HepG2,5.37 µM
